From ChEMBL document CHEMBL1156800, “Probing Torpedo californica acetylcholinesterase catalytic gorge with two novel bis-functional galanthamine derivatives” (J Med Chem, 2010)
pIC50: −log10 of the molar value.

Target: Acetylcholinesterase (Homo sapiens, UniProt P22303)
Experiment: Inhibition of human recombinant AChE

Chain of Acetylcholinesterase (P22303 whole entry): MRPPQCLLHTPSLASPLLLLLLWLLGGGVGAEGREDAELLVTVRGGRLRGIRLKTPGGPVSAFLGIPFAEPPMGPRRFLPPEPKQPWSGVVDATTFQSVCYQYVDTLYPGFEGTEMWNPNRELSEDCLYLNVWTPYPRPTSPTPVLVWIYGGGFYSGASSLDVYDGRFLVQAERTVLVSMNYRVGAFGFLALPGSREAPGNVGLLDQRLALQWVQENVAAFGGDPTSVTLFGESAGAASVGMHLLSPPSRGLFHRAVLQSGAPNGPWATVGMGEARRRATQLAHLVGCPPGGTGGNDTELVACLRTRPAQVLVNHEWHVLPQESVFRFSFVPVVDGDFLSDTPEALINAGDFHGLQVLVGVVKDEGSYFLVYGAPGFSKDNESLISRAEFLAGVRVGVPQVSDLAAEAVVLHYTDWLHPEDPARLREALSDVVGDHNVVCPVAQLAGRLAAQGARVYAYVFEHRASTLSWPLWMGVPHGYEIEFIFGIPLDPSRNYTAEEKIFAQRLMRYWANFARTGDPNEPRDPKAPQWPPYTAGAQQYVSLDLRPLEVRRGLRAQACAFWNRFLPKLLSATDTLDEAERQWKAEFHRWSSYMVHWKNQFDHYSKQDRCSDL

COc1ccc2c3c1O[C@H]1C[C@@H](O)C=C[C@@]31CCN(CCCCCCCCN1C(=O)c3ccccc3S1(=O)=O)C2 gave a pIC50 of 7.30.
